Like-named read-outs stand apart in the source and are kept apart here. Blank lines part the entries; values can stand above or below the molecule they belong to.
Legend:
[1] = Vapor-liquid equilibrium still, t-butanol-trichloroethylene azeotrope with extractive distillation agent; type: physicochemical; settings: for Relative Volatility: trichloroethylene from t-butanol, Table 10
Excerpt: (§1) The data in Tables 2, 3, 5, 7, 8, 10 and 11 was obtained in a vapor-liquid equilibrium still. In every case, the starting mixture was the trichloroethylene-butanol azeotrope. The relative volatilities are listed for each of the agents.
Seventy grams of the t-butanol-trichloroethylene azeotrope and 30 grams of n-butyl acetate were charged to the vapor-liquid equilibrium still and refluxed for fourteen hours.

[2] = Vapor-liquid equilibrium still, trichloroethylene-n-butanol azeotrope with extractive distillation agent; type: physicochemical
[3] = Vapor-liquid equilibrium still, trichloroethylene-2-butanol azeotrope with extractive distillation agent; type: physicochemical
Excerpt: as §1
Seventy grams of the trichloroethylene-2-butanol azeotrope and 30 grams of 2-methyl-1-pentanol were charged to the vapor-liquid equilibrium still and refluxed for two hours.

[4] = Glass perforated plate rectification column (7.3 theoretical plates), trichloroethylene / 2-butanol; type: physicochemical
Excerpt: The overhead analysis was 98.2% trichloroethylene, 1.8% 2-butanol and the bottoms analysis was 65.6% trichloroethylene, 34.4% 2-butanol. This gives an average relative volatility of 1.59 for each theoretical plate.

[5] = Vapor-liquid equilibrium still, trichloroethylene-isobutanol azeotrope with extractive distillation agent; type: physicochemical
Excerpt: as §1
Seventy grams of the trichloroethylene-isobutanol azeotrope and 30 grams of n-octanol were charged to the vapor-liquid equilibrium still and refluxed for five hours.

[6] = Method: A solution comprising 170 grams of trichloroethylene and 30 grams of t-butanol was placed in the stillpot of the 7.3 theoretical plate glass perforated plate rectification column. When refluxing began, an extractive agent comprising n-butyl acetate was pumped into the column at a rate of 15 ml/min. The temperature of the extractive agent as it entered the column was 85° C. After establishing the feed rate of the extractive agent, the heat input to the trichloroethylene-t-butanol in the stillpot was adjusted to give a total reflux rate of 40 ml/min. After two hours of operation, the overhead and bottoms samples were collected and analysed.
[7] = Glass perforated plate rectification column (7.3 theoretical plates), trichloroethylene / isobutanol; type: physicochemical
Excerpt: The overhead analysis was 97.7% trichloroethylene, 2.3% isobutanol and the bottoms analysis was 84.8% trichloroethylene, 15.2% isobutanol. This gives an average relative volatility of 1.31 for each theoretical plate.

[8] = trichloroethylene from n-butanol, Table 2
[9] = trichloroethylene from 2-butanol, Table 7
[10] = trichloroethylene from isobutanol, Table 5
[11] = Example 7, refluxed fourteen hours
[12] = bottoms, 2 hrs, listed as n-butyl acetate
[13] = overhead, 2 hrs, listed as n-butyl acetate

- Relative Volatility [1]: 1.85
Molecule: 2-Methoxyethyl ether acetate

Molecule: CC(=O)O[C@@H]1C[C@H]2CC[C@]1(C)C2(C)C (racemic) [Isobornyl acetate]
- Relative Volatility [2, 8]: 1.25

Molecule: COCC(C)OC(C)=O (stereo not shown) [1-Methoxy-2-propanol acetate]
- Relative Volatility [1]: 1.65
- Relative Volatility [2]: 1.5

Molecule: COCC(C)O (stereo not shown) [1-Methoxy-2-propanol]
- Relative Volatility [1]: 1.65

Molecule: CCCCCCCCO [1-Octanol]
- Relative Volatility [3, 9]: 1.5

Molecule: CC(=O)CC(C)=O [2,4-Pentanedione]
- Relative Volatility [1]: 1.4

- Relative Volatility [2, 8]: 1.35
Molecule: CC(C)CC(=O)CC(C)C [2,6-Dimethyl-4-heptanone]

- Relative Volatility [3, 9]: 1.85
Molecule: CCC(CC)CO [2-Ethyl butanol]

- Relative Volatility [3, 9]: 1.55
Molecule: CCCCC(CC)CO (stereo not shown) [2-Ethyl-1-hexanol]

Molecule: CCCCCC(C)=O [2-Heptanone]
- Relative Volatility [2, 8]: 1.7

Molecule: CCCC(C)CO (stereo not shown) [2-Methyl pentanol]
- Relative Volatility [2, 8]: 3.5

Molecule: CCCC(C)CO (stereo not shown) [2-Methyl-1-pentanol]
- liquid composition, 2-butanol ([3]; Example 5, refluxed two hours): 19.5%
- liquid composition, trichloroethylene ([3]; Example 5, refluxed two hours): 80.5%
- vapor composition, 2-butanol ([3]; Example 5, refluxed two hours): 11.9%
- vapor composition, trichloroethylene ([3]; Example 5, refluxed two hours): 88.1%
- Relative Volatility ([3]; Example 5: 70 g azeotrope, 30 g agent, refluxed two hours): 1.75
- Relative Volatility [3, 9]: 1.6
- Relative Volatility (per theoretical plate) ([4]; 1 hr): 1.49
- Relative Volatility (average, per theoretical plate) ([4]; 2 hrs): 1.59
- Weight % 2-Butanol ([4]; bottoms, 1 hr): 30.7%
- Weight % C2 H Cl3 ([4]; bottoms, 1 hr): 69.3%
- Weight % 2-Butanol ([4]; bottoms, 2 hrs): 34.4%
- Weight % C2 H Cl3 ([4]; bottoms, 2 hrs): 65.6%
- Weight % 2-Butanol ([4]; overhead, 1 hr): 2.4%
- Weight % C2 H Cl3 ([4]; overhead, 1 hr): 97.6%
- Weight % 2-Butanol ([4]; overhead, 2 hrs): 1.8%
- Weight % C2 H Cl3 ([4]; overhead, 2 hrs): 98.2%
- Relative Volatility [5, 10]: 2.2

Molecule: CCCCCCC(C)O (stereo not shown) [2-Octanol]
- Relative Volatility [5, 10]: 2.7

- Relative Volatility [2, 8]: 1.4
Molecule: CCCCCCC(C)=O [2-Octanone]

Molecule: CCCC(C)=O [2-Pentanone]
- Relative Volatility [1]: 1.9

- Relative Volatility [1]: 1.35
Molecule: CCCCC(=O)CC [3-Heptanone]

- Relative Volatility [1]: 1.55
Molecule: CCCC(=O)CC [3-Hexanone]

- Relative Volatility [3, 9]: 1.35
Molecule: CCC(C)(O)CC [3-Methyl-3-pentanol]

- Relative Volatility [2, 8]: 1.35
Molecule: CCCCCC(=O)CC [3-Octanone]

- Relative Volatility [3, 9]: 1.65
Molecule: OCCCc1ccccc1 [3-Phenyl-1-propanol]

Molecule: CC(C)CC(C)O (stereo not shown) [4-Methyl-2-pentanol]
- Relative Volatility [5, 10]: 2.7

Molecule: CC(=O)CC(C)C [4-Methyl-2-pentanone]
- Relative Volatility [1]: 1.5

Molecule: CC(=O)CCC(C)C [5-Methyl-2-hexanone]
- Relative Volatility [1]: 1.3
- Relative Volatility [2, 8]: 1.6

Molecule: CC(=O)CCC(C)=O [Acetonylacetone]
- Relative Volatility [2, 8]: 2.6

- Relative Volatility [2, 8]: 1.6
Molecule: CC(=O)c1ccccc1 [Acetophenone]

Molecule: OCc1ccccc1 [Benzyl alcohol]
- Relative Volatility [2, 8]: 3.5
- Relative Volatility [5, 10]: 2.0

Molecule: OC1CCCCC1 [Cyclohexanol]
- Relative Volatility [2]: 3.5
- Relative Volatility [5, 10]: 2.4

Molecule: CC(=O)CC(C)(C)O [Diacetone alcohol]
- Relative Volatility [3, 9]: 1.45
- Relative Volatility [5, 10]: 1.3

- Relative Volatility [2, 8]: 1.4
- Relative Volatility [3, 9]: 1.35
- Relative Volatility [5, 10]: 1.6
Molecule: CC(C)CC(O)CC(C)C [Diisobutyl carbinol]

- Relative Volatility [1]: 1.4
- Relative Volatility [2, 8]: 1.4
Molecule: CC(C)CC(=O)CC(C)C [Diisobutyl ketone]

Molecule: CN(C)C=O [Dimethylformamide]
- Relative Volatility [2]: 4.5

Molecule: CCCC(=O)OCC [Ethyl butyrate]
- Relative Volatility [1]: 1.5

Molecule: CCOCCC(=O)OCC [Ethyl ethoxy propionate]
- Relative Volatility [1]: 1.45

Molecule: CCOC(=O)CC(C)C [Ethyl isovalerate]
- Relative Volatility [1]: 1.5
- Relative Volatility [2, 8]: 1.45

- Relative Volatility [1]: 2.4
Molecule: CCOC(=O)CC [Ethyl propionate]

Molecule: CCCCC(=O)OCC [Ethyl valerate]
- Relative Volatility [1]: 1.65
- Relative Volatility [2, 8]: 3.0

- Relative Volatility [3, 9]: 1.55
- Relative Volatility [5, 10]: 1.95
Molecule: CCCCCCCO [Heptyl alcohol]

- Relative Volatility [1]: 1.4
Molecule: CCCCCCOC(C)=O [Hexyl acetate]

Molecule: CCCCCCO [Hexyl alcohol]
- Relative Volatility [3, 9]: 2.6

Molecule: CC(=O)OCCC(C)C [Isoamyl acetate]
- Relative Volatility [1]: 1.5

- Relative Volatility [5, 10]: 1.9
Molecule: CC(C)CCO [Isoamyl alcohol]

Molecule: CC(=O)OCC(C)C [Isobutyl acetate]
- Relative Volatility [1]: 1.4

- Relative Volatility [1]: 1.65
Molecule: CCCC(=O)OCC(C)C [Isobutyl butyrate]

Molecule: CC(C)COC(=O)C(C)C [Isobutyl isobutyrate]
- Relative Volatility [1]: 1.45
- Relative Volatility [2]: 1.5

Molecule: CC(C)CCCCCCCO [Isodecyl alcohol]
- Relative Volatility [2]: 3.6

Molecule: CC(C)CCCO [Isohexyl alcohol]
- Relative Volatility [5, 10]: 2.6

- Relative Volatility [3, 9]: 1.35
Molecule: CC(C)CCCCCCO [Isononyl alcohol]

Molecule: CC(C)CCCCCO [Isooctanol]
- Relative Volatility [5, 10]: 1.6

Molecule: CC(C)CCCCCO [Isooctyl alcohol]
- Relative Volatility [3, 9]: 1.7

Molecule: CC1=CC(=O)CC(C)(C)C1 [Isophorone]
- Relative Volatility [2, 8]: 1.45
- Relative Volatility [5, 10]: 1.6

Molecule: CC(=O)CCC(C)C [Methyl isoamyl ketone]
- Relative Volatility [1]: 1.4

Molecule: CC(C)CC(C)O (stereo not shown) [Methyl isobutyl carbinol]
- Relative Volatility [2, 8]: 2.4

Molecule: CC(=O)CC(C)C [Methyl isobutyl ketone]
- Relative Volatility [1]: 1.3

Molecule: CC(=O)C(C)C [Methyl isopropyl ketone]
- Relative Volatility [1]: 1.3

- Relative Volatility [5, 10]: 3.8
Molecule: CCCCCCCCCO [Nonyl alcohol]

- Relative Volatility [2, 8]: 2.5
- Relative Volatility [5, 10]: 1.55
Molecule: OCCc1ccccc1 [Phenethyl alcohol]

Molecule: O=S1(=O)CCCC1 [Sulfolane]
- Relative Volatility [2, 8]: 2.5

Molecule: OCC1CCCO1 (stereo not shown) [Tetrahydrofurfuryl alcohol]
- Relative Volatility [2]: 2.2
- Relative Volatility [3, 9]: 1.65
- Relative Volatility [5, 10]: 2.4

Molecule: CCCCCOC(C)=O [n-Amyl acetate]
- Relative Volatility [1]: 1.7

Molecule: CCCCOC(C)=O [n-Butyl acetate]
- liquid composition, t-butanol [1, 11]: 31.7%
- liquid composition, trichloroethylene [1, 11]: 68.3%
- vapor composition, t-butanol [1, 11]: 55.5%
- vapor composition, trichloroethylene [1, 11]: 44.5%
- relative volatility of t-butanol to trichloroethylene ([1]; Example 7: 70 g azeotrope, 30 g agent, refluxed fourteen hours): 1.7
- Relative Volatility [1]: 1.7
- Relative Volatility (per theoretical plate) ([6]; 1 hr): 1.63
- Relative Volatility (average, t-butanol to trichloroethylene, per theoretical plate) ([6]; 2 hrs): 2.15
- Weight % C2 H Cl3 ([6]; bottoms, 1 hr): 6.1%
- Weight % t-Butanol ([6]; bottoms, 1 hr): 93.9%
- Weight % C2 H Cl3 ([6]; bottoms, 2 hrs): 4.1%
- Weight % t-Butanol ([6]; bottoms, 2 hrs): 95.9%
- Weight % C2 H Cl3 [6, 12]: 95.9%
- Weight % t-Butanol [6, 12]: 4.1%
- Weight % C2 H Cl3 ([6]; overhead, 1 hr): 70.3%
- Weight % t-Butanol ([6]; overhead, 1 hr): 29.7%
- Weight % C2 H Cl3 ([6]; overhead, 2 hrs): 92.2%
- Weight % t-Butanol ([6]; overhead, 2 hrs): 7.8%
- Weight % C2 H Cl3 [6, 13]: 7.8%
- Weight % t-Butanol [6, 13]: 92.2%

- Relative Volatility [2, 8]: 2.4
- Relative Volatility [5, 10]: 3.9
Molecule: CCCCCCCCCCO [n-Decanol]

Molecule: CCCCCCO [n-Hexyl alcohol]
- Relative Volatility [2, 8]: 3.1

- Relative Volatility [2, 8]: 2.5
Molecule: CCCCCCCCCO [n-Nonyl alcohol]

Molecule: CCCCCCCCO [n-Octanol]
- Relative Volatility [2, 8]: 2.3
- Relative Volatility (per theoretical plate) ([7]; 1 hr): 1.275
- Relative Volatility (average, per theoretical plate) ([7]; 2 hrs): 1.31
- Weight % C2 H Cl3 ([7]; bottoms, 1 hr): 84.0%
- Weight % Isobutanol ([7]; bottoms, 1 hr): 16.0%
- Weight % C2 H Cl3 ([7]; bottoms, 2 hrs): 84.8%
- Weight % Isobutanol ([7]; bottoms, 2 hrs): 15.2%
- Weight % C2 H Cl3 ([7]; overhead, 1 hr): 96.9%
- Weight % Isobutanol ([7]; overhead, 1 hr): 3.1%
- Weight % C2 H Cl3 ([7]; overhead, 2 hrs): 97.7%
- Weight % Isobutanol ([7]; overhead, 2 hrs): 2.3%
- liquid composition, isobutanol ([5]; Example 3, refluxed five hours): 6.1%
- liquid composition, trichloroethylene ([5]; Example 3, refluxed five hours): 93.9%
- vapor composition, isobutanol ([5]; Example 3, refluxed five hours): 4.6%
- vapor composition, trichloroethylene ([5]; Example 3, refluxed five hours): 95.4%
- Relative Volatility ([5]; Example 3: 70 g azeotrope, 30 g agent, refluxed five hours): 1.3
- Relative Volatility [5, 10]: 1.3

Molecule: CCCOC(C)=O [n-Propyl acetate]
- Relative Volatility [1]: 2.9
